# Test results reported in patent US10231453B2, “5-substituted imidazole derivatives” (BAYER CROPSCIENCE AKTIENGESELLSCHAFT, priority 2015, dated 2019).
# Key:
# Septoria tritici = test: In vivo preventive test on Septoria tritici (leaf spot on wheat), Examples E, Q3 and R5; conditions: Zymoseptoria tritici, 576 h, 500 ppm of active ingredient; wheat, preventive spray, evaluated 24 days after inoculation; read-out: efficacy
# Sphaerotheca fuliginea = test: In vivo preventive test on Sphaerotheca fuliginea (powdery mildew on cucurbits), Examples F and R6; conditions: Podosphaera fuliginea, 360 h; 500 ppm of active ingredient; gherkin, preventive spray, evaluated 15 days after inoculation; read-out: efficacy
# Alternaria solani = test: In vivo preventive Alternaria test (tomatoes), Example H; conditions: 72 h, 100 ppm of active ingredient, preventive spray, evaluated 3 days after inoculation, read-out: efficacy
# Uromyces appendiculatus = test: In vivo preventive test on Uromyces appendiculatus (bean rust), Examples G and R7; conditions: 264 h, 500 ppm of active ingredient, bean, preventive spray, evaluated 11 days after inoculation, read-out: efficacy
# [1] = Measurement of LogP values by HPLC on reversed phase columns (EEC directive 79/831 Annex V.A8); assay type: physicochemical; conditions: method [a]: LC-UV, acidic range, 0.1% formic acid in water and acetonitrile as eluent; Table 1
# Description: Measurement of Log P values was performed as outlined above.
# [2] = tested on: Blumeria graminis fsp. hordei; test: In vivo preventive Blumeria test (barley), Example K; conditions: 168 h, 500 ppm of active ingredient, preventive spray, evaluated 7 days after inoculation, read-out: efficacy
# Text: After the spray coating has been dried, the plants are dusted with spores of Blumeria graminis fsp. hordei.
# Fusarium graminearum = test: whole plant or invertebrate; assay type: in vivo; conditions: in Hordeum vulgare, 120 h, read-out: efficacy
# Phakopsora pachyrhizi = test: In vivo preventive Phakopsora test (soybeans), Example I; conditions: 168 h, 100 ppm of active ingredient, preventive spray, evaluated 7 days after inoculation, read-out: efficacy
# Pyrenophora teres = test: In vivo preventive test on Pyrenophora teres (net blotch on barley), Examples D, Q2 and R4; conditions: Pyrenophora teres, 336 h, 500 ppm of active ingredient, preventive spray, evaluated 14 days after inoculation, read-out: efficacy
# Puccinia recondita = test: In vivo preventive test on Puccinia recondita (brown rust on wheat), Examples C and R3; conditions: Puccinia recondita, 264 h; 500 ppm of active ingredient; wheat, preventive spray, evaluated 11 days after inoculation; read-out: efficacy
# Venturia inaequalis = test: In vivo preventive Venturia test (apples), Example J; conditions: 240 h, read-out: efficacy
# Description: After the spray coating has dried on, the plants are inoculated with an aqueous conidia suspension of the causal agent of apple scab (Venturia inaequalis) and then remain for 1 day in an incubation cabinet at approximately 20° C. and a relative atmospheric humidity of 100%.
# The plants are then placed in a greenhouse at approximately 21° C. and a relative atmospheric humidity of approximately 90%.
# The test is evaluated 10 days after the inoculation.
# Botrytis cinerea = test: In vivo preventive test on Botrytis cinerea (grey mould) on gherkin, Examples B, Q1 and R2; conditions: Botrytis cinerea, 500 ppm of active ingredient, preventive spray, evaluated 4 to 5 days after inoculation, read-out: efficacy
# [3] = tested on: Fusarium nivale (var. majus); test: In vivo preventive Fusarium nivale (var. majus) test (wheat), Example O; conditions: Microdochium nivale, 120 h, 500 ppm of active ingredient, preventive spray, evaluated 5 days after inoculation, read-out: efficacy
# Text: After the spray coating has been dried, the plants are slightly injured by using a sandblast and afterwards they are sprayed with a conidia suspension of Fusarium nivale (var. majus).
# Pyricularia oryzae = test: whole plant or invertebrate; assay type: in vivo; conditions: 192 h, read-out: efficacy
# Alternaria brassicae = test: In vivo preventive test on Alternaria brassicae (leaf spot on radish), Examples A and R1; conditions: Alternaria brassicae, 144 h, 500 ppm of active ingredient, preventive spray, evaluated 6 days after inoculation, read-out: efficacy
smiles,measurement,setting,value
N#Cc1cncn1CC(O)(Cc1ccc(F)c(F)c1F)C1(Cl)CC1 (stereo not shown) [Example I-103],pest or weed control at 500 ppm,Septoria tritici,90 to 100%
same,pest or weed control at 500 ppm,Sphaerotheca fuliginea,90 to 100%
same,pest or weed control at 100 ppm,Alternaria solani,80 to 89%
same,pest or weed control at 500 ppm,Uromyces appendiculatus,90 to 100%
same,chromatographic logP,[1],2.92
same,pest or weed control at 500 ppm,[2],90 to 100%
same,pest or weed control at 500 ppm,Fusarium graminearum,90 to 100%
same,pest or weed control at 100 ppm,Phakopsora pachyrhizi,90 to 100%
same,pest or weed control at 500 ppm,Pyrenophora teres,80 to 89%
same,pest or weed control at 500 ppm,Puccinia recondita,90 to 100%
same,pest or weed control at 100 ppm,Venturia inaequalis,80 to 89%
Cc1ccc(CC(O)(Cn2cncc2C#N)C2(Cl)CC2)c(F)c1 (stereo not shown) [Example I-107],pest or weed control at 500 ppm,Septoria tritici,90 to 100%
same,pest or weed control at 500 ppm,Sphaerotheca fuliginea,90 to 100%
same,pest or weed control at 100 ppm,Alternaria solani,90 to 100%
same,pest or weed control at 500 ppm,Uromyces appendiculatus,80 to 89%
same,chromatographic logP,[1],2.97
same,pest or weed control at 500 ppm,Botrytis cinerea,90 to 100%
same,pest or weed control at 100 ppm,Phakopsora pachyrhizi,80 to 89%
same,pest or weed control at 500 ppm,Pyrenophora teres,90 to 100%
same,pest or weed control at 500 ppm,Puccinia recondita,80 to 89%
same,pest or weed control at 100 ppm,Venturia inaequalis,80 to 89%
N#Cc1cncn1CC(O)(Cc1ccc(F)c(F)c1)C1(Cl)CC1 (stereo not shown) [Example I-109],pest or weed control at 500 ppm,Septoria tritici,90 to 100%
same,pest or weed control at 500 ppm,Sphaerotheca fuliginea,90 to 100%
same,pest or weed control at 500 ppm,Uromyces appendiculatus,90 to 100%
same,chromatographic logP,[1],2.78
same,pest or weed control at 500 ppm,[2],90 to 100%
same,pest or weed control at 500 ppm,[3],80 to 89%
same,pest or weed control at 500 ppm,Fusarium graminearum,90 to 100%
same,pest or weed control at 500 ppm,Pyrenophora teres,90 to 100%
same,pest or weed control at 500 ppm,Puccinia recondita,90 to 100%
OC(Cc1ccc(F)cc1F)(Cn1cncc1Cl)C1(Cl)CC1 (stereo not shown) [Example I-126],pest or weed control at 500 ppm,Septoria tritici,90 to 100%
same,pest or weed control at 500 ppm,Sphaerotheca fuliginea,90 to 100%
same,pest or weed control at 100 ppm,Alternaria solani,90 to 100%
same,pest or weed control at 500 ppm,Uromyces appendiculatus,90 to 100%
same,pest or weed control at 500 ppm,[2],90 to 100%
same,pest or weed control at 500 ppm,Botrytis cinerea,90 to 100%
same,pest or weed control at 500 ppm,Fusarium graminearum,90 to 100%
same,pest or weed control at 100 ppm,Phakopsora pachyrhizi,90 to 100%
same,pest or weed control at 500 ppm,Pyrenophora teres,90 to 100%
same,pest or weed control at 500 ppm,Puccinia recondita,90 to 100%
same,pest or weed control at 500 ppm,Pyricularia oryzae,90 to 100%
CC(C)(C)C(O)(Cc1ccccc1F)Cn1cncc1C#N (stereo not shown) [Example I-138],pest or weed control at 500 ppm,Septoria tritici,90 to 100%
same,pest or weed control at 500 ppm,Sphaerotheca fuliginea,90 to 100%
same,pest or weed control at 500 ppm,Uromyces appendiculatus,90 to 100%
same,chromatographic logP,[1],2.73
same,pest or weed control at 500 ppm,[2],90 to 100%
same,pest or weed control at 500 ppm,Botrytis cinerea,80 to 89%
same,pest or weed control at 500 ppm,Fusarium graminearum,90 to 100%
same,pest or weed control at 100 ppm,Phakopsora pachyrhizi,90 to 100%
same,pest or weed control at 500 ppm,Puccinia recondita,90 to 100%
same,pest or weed control at 500 ppm,Pyricularia oryzae,80 to 89%
same,pest or weed control at 100 ppm,Venturia inaequalis,70 to 79%
CC1(C(O)(Cc2cccc(F)c2F)Cn2cncc2C#N)CC1 (stereo not shown) [Example I-144],pest or weed control at 500 ppm,Septoria tritici,90 to 100%
same,pest or weed control at 500 ppm,Sphaerotheca fuliginea,90 to 100%
same,pest or weed control at 500 ppm,Uromyces appendiculatus,90 to 100%
same,chromatographic logP,[1],2.75
same,pest or weed control at 500 ppm,[2],90 to 100%
same,pest or weed control at 500 ppm,Botrytis cinerea,90 to 100%
same,pest or weed control at 500 ppm,Fusarium graminearum,90 to 100%
same,pest or weed control at 500 ppm,Pyrenophora teres,90 to 100%
same,pest or weed control at 500 ppm,Puccinia recondita,90 to 100%
same,pest or weed control at 500 ppm,Pyricularia oryzae,70 to 79%
Cc1cc(F)ccc1CC(O)(Cn1cncc1Cl)C1(Cl)CC1 (stereo not shown) [Example I-155],pest or weed control at 500 ppm,Septoria tritici,90 to 100%
same,pest or weed control at 500 ppm,Sphaerotheca fuliginea,90 to 100%
same,pest or weed control at 100 ppm,Alternaria solani,90 to 100%
same,pest or weed control at 500 ppm,Uromyces appendiculatus,90 to 100%
same,chromatographic logP,[1],2.46
same,pest or weed control at 500 ppm,Botrytis cinerea,90 to 100%
same,pest or weed control at 500 ppm,Alternaria brassicae,70 to 79%
same,pest or weed control at 100 ppm,Phakopsora pachyrhizi,90 to 100%
same,pest or weed control at 500 ppm,Pyrenophora teres,70 to 79%
same,pest or weed control at 500 ppm,Puccinia recondita,80 to 89%
same,pest or weed control at 100 ppm,Venturia inaequalis,90 to 100%
N#Cc1cncn1CC(O)(Cc1cc(F)cc(F)c1)C1(Cl)CC1 (stereo not shown) [Example I-156],pest or weed control at 500 ppm,Septoria tritici,90 to 100%
same,pest or weed control at 500 ppm,Sphaerotheca fuliginea,90 to 100%
same,pest or weed control at 500 ppm,Uromyces appendiculatus,90 to 100%
same,chromatographic logP,[1],2.86
same,pest or weed control at 500 ppm,[2],90 to 100%
same,pest or weed control at 500 ppm,Fusarium graminearum,80 to 89%
same,pest or weed control at 500 ppm,Pyrenophora teres,80 to 89%
same,pest or weed control at 500 ppm,Puccinia recondita,90 to 100%
OC(Cc1ccncc1F)(Cn1cncc1Cl)C1(Cl)CC1 (stereo not shown) [Example I-164],pest or weed control at 500 ppm,Septoria tritici,90 to 100%
same,pest or weed control at 500 ppm,Sphaerotheca fuliginea,90 to 100%
same,pest or weed control at 500 ppm,Uromyces appendiculatus,90 to 100%
same,chromatographic logP,[1],1.46
same,pest or weed control at 500 ppm,[2],90 to 100%
same,pest or weed control at 500 ppm,[3],80 to 89%
same,pest or weed control at 500 ppm,Botrytis cinerea,90 to 100%
same,pest or weed control at 500 ppm,Pyrenophora teres,80 to 89%
same,pest or weed control at 500 ppm,Puccinia recondita,80 to 89%
same,pest or weed control at 500 ppm,Pyricularia oryzae,70 to 79%
